In patent US4997829A, “Penem compounds, and use thereof” (Suntory Limited, priority 1985, dated 1991):
Like-named read-outs stand apart in the source and are kept apart here.

Columns and labels:
[1] = Acute toxicity test; format: in vivo; details: mouse, in vivo, iv, route not restated (follows intravenous paragraph), read-out: 50% lethal dose (LD50)
Description: Out of the novel compounds obtained according to this invention, SUN 4435 and SUN 5555 were selected to carry out an acute toxicity test. As an animal, there were employed ICR strain mice (4-weeks aged), which were treated by oral and intravenous application of the compounds.

[2] = tested on: Ser. marcescens IMA 1136; assay: Minimum inhibitory concentration (MIC), agar plate dilution method; format: cell-based; details: Serratia marcescens, IMA1136; 10^6 CFU inoculated, 37° C., 18 hours
Description: (§1) With regard to the novel compounds obtained according to this invention and the compounds of Reference Examples, their minimum inhibitory concentrations (MIC) were determined by the agar plate dilution method in accordance with the MIC measuring standard method of The Chemotherapeutic Society of Japan, whereby 10^6 colony forming units were inoculated and the minimal concentration to inhibit the microbial growth after inclubation at 37° C. for 18 hours were determined, as shown as μg/ml in Table.

[3] = tested on: K. pneumoniae PC1602; assay: as above; format: cell-based; details: Klebsiella pneumoniae, PC1602; 10^6 CFU inoculated, 37° C., 18 hours
Description: as §1

[4] = tested on: Pr. morganii IFO3848; assay: as above; format: cell-based; details: Morganella morganii, IFO3848; 10^6 CFU inoculated, 37° C., 18 hours
Description: as §1

[5] = tested on: F. varium ATCC8501; assay: as above; format: cell-based; details: Fusobacterium varium, ATCC8501; 10^6 CFU inoculated, 37° C., 18 hours
Description: as §1

[6] = tested on: S. aureus FAD209P JC-1; assay: as above; format: cell-based; details: Staphylococcus aureus, FAD209PJC1; 10^6 CFU inoculated, 37° C., 18 hours
Description: as §1

[7] = tested on: Al. fecalis IFO13111; assay: as above; format: cell-based; details: 10^6 CFU inoculated, 37° C., 18 hours
Description: as §1

[8] = tested on: B. fragilis V-280-1; assay: as above; format: cell-based; details: Bacteroides fragilis, V2801; 10^6 CFU inoculated, 37° C., 18 hours
Description: as §1

[9] = tested on: Ent. cloacae 963; assay: as above; format: cell-based; details: Enterobacter cloacae, 963; 10^6 CFU inoculated, 37° C., 18 hours
Description: as §1

[10] = tested on: Pr. vulgaris GN7919; assay: as above; format: cell-based; details: Proteus vulgaris, GN7919; 10^6 CFU inoculated, 37° C., 18 hours
Description: as §1

[11] = tested on: M. luteus ATCC9341; assay: as above; format: cell-based; details: Micrococcus luteus, ATCC9341; 10^6 CFU inoculated, 37° C., 18 hours
Description: as §1

[12] = tested on: B. fragilis GM7000; assay: as above; format: cell-based; details: Bacteroides fragilis, GM7000; 10^6 CFU inoculated, 37° C., 18 hours
Description: as §1

[13] = tested on: E. coli NIHI JC-2; assay: as above; format: cell-based; details: Escherichia coli, NIHIJC2; 10^6 CFU inoculated, 37° C., 18 hours
Description: as §1

[14] = tested on: E. coli W3630/Rms212; assay: as above; format: cell-based; details: Escherichia coli, W3630/RMS212, 18 h, read-out: minimum inhibitory concentration (MIC)
Description: as §1

[15] = tested on: E. coli W3630/Rms213; assay: as above; format: cell-based; details: Escherichia coli, W3630/RMS213, 18 h, read-out: minimum inhibitory concentration (MIC)
Description: as §1

[16] = tested on: S. aureus Smith; assay: Therapeutic effect against experimental infection in mice (ED50); format: in vivo, S. aureus; ICR strain male mice; details: Staphylococcus aureus, po, 144 h, survival after 6 days, Probit method, read-out: ED50
Description: (§2) Out of the novel compound obtained according to this invention, SUN 4435 was selected to carry out a treatment experiment with infected animals. As an animal, there were employed ICR strain male mice (5-weeks aged, with an average body weight of 29.1 g), which were infected intraperitoneally with a test microorganism, S. aureus Smith or E. coli KC-14, and 24 hours later, treated by subcutaneous or oral application of SUN 4435 or SUN 5555. ED50 values were determined from the survival rates found after 6 days in accordance with the Probit method.

[17] = tested on: S. aureus Smith; assay: Therapeutic effect against experimental infection of mice (survival); format: in vivo, S. aureus; ICR strain male mice
Description: (§3) Out of the novel compounds obtained according to this invention, SUN 4435 was selected to carry out a treatment experiment with infected animals. As an animal, there were employed ICR strain male mice (5-weeks aged, with a body weight of 23 to 27 g), which were inoculated intraperitoneally with S. aureus Smith or E. coli KC-14 and 2 hours later, treated by subcutaneous or oral application of SUN 4435.

[18] = tested on: E. coli KC-14; assay: as above; format: in vivo, E. coli; ICR strain male mice
Description: as §3

[19] = tested on: E. coli KC-14; assay: Therapeutic effect against experimental infection in mice (ED50); format: in vivo, E. coli; ICR strain male mice; details: Escherichia coli, 144 h, survival after 6 days, Probit method, read-out: ED50
Description: as §2

SMILES | MIC [2] [µg/mL] | MIC [3] [µg/mL] | MIC [4] [µg/mL] | MIC [5] [µg/mL] | MIC [6] [µg/mL] | MIC [7] [µg/mL] | MIC [8] [µg/mL] | MIC [9] [µg/mL] | MIC [10] [µg/mL] | MIC [11] [µg/mL] | MIC [12] [µg/mL] | MIC [13] [µg/mL] | MIC [14] [µg/mL] | MIC [15] [µg/mL] | also measured
C[C@@H](O)[C@H]1C(=O)N2C(C(=O)O)=C([C@H]3CCCO3)S[C@H]12 [SUN 4435, Potassium (1'R, 2"R, 5R, 6S)-6-(1'-hydroxyethyl)-2-(2"-tetrahydrofuranyl)penem-3-carboxylate] | 3.13 | 0.1 | 6.25 | 0.2 | 0.05 | 0.78 | 0.2 | 3.13 | 0.39 | 0.05 | < 0.025 | 0.78 | 1.56 | 0.78 | LD50 ([1]; female mice): 456 mg/kg; LD50 ([1]; male mice): 480 mg/kg; ED50 [16]: 5.9 mg/kg; survival ([17]; oral, 3.9 mg/kg, 3.6×10^5 CFU/head): three heads out of five survived; survival ([17]; oral, 9.6 mg/kg or more, 3.6×10^5 CFU/head): every heads were found to survive; survival ([17]; subcutaneous, 1.6 mg/kg or more, 5.7×10^5 CFU): every heads were found to survive; survival ([18]; oral, 12.5 mg/kg or more, 1.5×10^5 CFU/head): every heads were found to survive; survival ([18]; subcutaneous, 1.5 mg/kg, 3.1×10^5 CFU): three mice per five survived; survival ([18]; subcutaneous, 2.6 mg/kg or more, 3.1×10^5 CFU): every heads were found to survive; ED50 ([19]; KC14, po, oral): 11 mg/kg; ED50 ([19]; KC14, sc, subcutaneous): 1.5 mg/kg
C[C@@H](O)[C@H]1C(=O)N2C(C(=O)O)=C(c3ccco3)S[C@H]12 (relative stereo) [SUN 4194, Potassium (1'R, 5R, 6S and 1',S, 5S, 6R)-2-(2"-furanyl)-6-(1'-hydroxyethyl)penem-3-carboxylate, reference compound] | 25 | 3.13 | 12.5 | 6.25 | 0.39 | 6.25 | 6.25 | 25 | 3.13 | 0.2 | 0.39 | 25 | 25 | 25 | –
C[C@@H](O)[C@H]1C(=O)N2C(C(=O)O)=C([C@H]3CCOC3)S[C@H]12 [SUN 4725, Potassium (1'R, 3"S, 5R, 6S)-6-(1'-hydroxyethyl)-2-(11-tetrahydrofuranyl)penem-3-carboxylate] | 6.25 | 0.1 | 12.5 | 0.39 | 0.05 | 0.78 | 0.05 | 6.25 | 0.78 | 0.1 | 0.05 | 1.56 | 3.13 | 1.56 | –
C[C@@H](O)[C@H]1C(=O)N2C(C(=O)O)=C(Cc3ccsc3)S[C@H]12 (relative stereo) [SUN 3514, Potassium (1'R, 5R, 6S and 1'S, 5S, 6R)-6-(1'-hydroxyethyl)-2-(3"-thiophenemethyl)penem-3-carboxylate, reference compound] | 50 | 0.78 | 8.13 | 0.39 | 0.05 | 0.39 | 0.39 | > 50 | 6.25 | 0.2 | 0.39 | > 50 | 50 | 25 | –
C[C@@H](O)[C@H]1C(=O)N2C(C(=O)O)=C([C@@H]3CCOC3)S[C@H]12 [SUN 4726, Potassium (1'R, 3"R, 5R, 6S)-6-(1'-hydroxyethyl)-2-(3"-tetrahydrofuranyl)penem-3-carboxylate] | 12.5 | 0.05 | 12.5 | 0.1 | 0.05 | 1.56 | 0.05 | 6.25 | 1.56 | 0.05 | 0.05 | 1.56 | 3.13 | 1.56 | –
C[C@@H](O)[C@H]1C(=O)N2C(C(=O)O)=C([C@H]3COCCO3)S[C@H]12 [SUN 4771, Potassium (1'R, 2"R, 5R, 6S)-6-(1'-hydroxyethyl)-2-(2"-para-dioxanyl)penem-3-carboxylate] | 6.25 | 0.05 | 6.25 | 0.78 | 0.05 | 0.78 | 0.05 | 3.13 | 0.78 | 0.1 | 0.025 | 1.56 | 1.56 | 0.73 | –
CCSCC1=C(C(=O)O)N2C(=O)[C@H]([C@@H](C)O)[C@H]2S1 (relative stereo) [SUN 3515, Potassium (1'R, 5R, 6S and 1'S, 5S, 6R)-2-ethylmethylthio)-6-(1'-hydroxyethyl)-penem-3-carboxylate, reference compound] | 25 | 0.78 | 3.13 | 0.39 | 0.1 | 0.78 | 0.2 | 50 | 1.56 | 0.2 | 0.1 | 25 | 25 | 12.5 | –
